In ChEMBL document CHEMBL1201862, “PubChem BioAssay data set” (2004):
Active and inactive are the calls of the source.

Experiments:
[1] = molecular target: Protein disulfide-isomerase (Homo sapiens, UniProt P07237); experiment: PDI inhibitors, insulin aggregation turbidity, dose response, biochemical, absorbance, cherry-picked samples (AID 602350); assay type: functional
[2] = Shn3 3'UTR reporter inhibitors, dose response, cell-based, Clone20 osteoblasts, firefly luciferase, cherry-picked (AID 624132); assay type: functional;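 also: firefly luciferase luminescence from reporter carrying the Shn3 3'UTR in osteoblasts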
[3] = cells; assay type: functional, cell-based
[4] = molecular target: T1, CAAX prenyl protease 2 (Saccharomyces cerevisiae S288c, UniProt Q03530); assay type: biochemical
T1 sequence (Q03530 whole entry): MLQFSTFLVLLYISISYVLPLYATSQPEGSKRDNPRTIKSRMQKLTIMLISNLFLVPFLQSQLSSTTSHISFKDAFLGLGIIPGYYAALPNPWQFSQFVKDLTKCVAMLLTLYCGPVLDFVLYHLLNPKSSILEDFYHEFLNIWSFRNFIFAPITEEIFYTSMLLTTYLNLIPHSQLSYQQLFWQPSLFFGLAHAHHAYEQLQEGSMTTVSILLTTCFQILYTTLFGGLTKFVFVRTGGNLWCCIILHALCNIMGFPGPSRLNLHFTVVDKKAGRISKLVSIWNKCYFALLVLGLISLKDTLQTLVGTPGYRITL

[5] = molecular target: T2, Protein RecA (Mycobacterium tuberculosis, UniProt P9WHJ3); experiment: Fluorescence Cell-Free Homogeneous Dose Retest to Identify Inhibitors of RecA-Intein Splicing Activity. [Related pubchem assays (depositor defined):AID2097, AID2223, AID489010, AID492950]; assay type: functional
T2 sequence (P9WHJ3 whole entry): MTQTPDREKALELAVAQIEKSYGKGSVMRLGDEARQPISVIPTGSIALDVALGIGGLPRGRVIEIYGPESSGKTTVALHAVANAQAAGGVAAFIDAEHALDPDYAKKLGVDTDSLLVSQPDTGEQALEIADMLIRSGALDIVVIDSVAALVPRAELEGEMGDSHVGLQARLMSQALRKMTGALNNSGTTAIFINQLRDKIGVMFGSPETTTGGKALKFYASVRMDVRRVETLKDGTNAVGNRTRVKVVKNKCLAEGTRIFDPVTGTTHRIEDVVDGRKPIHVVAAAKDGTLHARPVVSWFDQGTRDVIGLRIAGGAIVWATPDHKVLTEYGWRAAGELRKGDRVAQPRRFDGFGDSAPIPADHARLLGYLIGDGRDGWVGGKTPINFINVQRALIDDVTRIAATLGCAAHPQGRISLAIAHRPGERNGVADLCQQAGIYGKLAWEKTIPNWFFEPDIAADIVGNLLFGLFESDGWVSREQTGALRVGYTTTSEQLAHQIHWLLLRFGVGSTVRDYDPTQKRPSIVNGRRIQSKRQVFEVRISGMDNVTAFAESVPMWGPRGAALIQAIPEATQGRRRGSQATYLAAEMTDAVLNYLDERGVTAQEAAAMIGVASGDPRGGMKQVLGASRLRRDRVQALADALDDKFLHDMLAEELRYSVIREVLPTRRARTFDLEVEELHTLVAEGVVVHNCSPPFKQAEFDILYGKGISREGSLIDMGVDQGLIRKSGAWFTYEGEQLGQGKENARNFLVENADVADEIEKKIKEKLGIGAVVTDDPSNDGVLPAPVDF

[6] = molecular target: Trypsin (Sus scrofa, UniProt P00761); experiment: porcine trypsin inhibitors, dose response, selectivity assay for Rce1 protease inhibitor project, biochemical, quenched peptide fluorescence, cherry-pick (AID 488789)
Chain of Trypsin (P00761 whole entry): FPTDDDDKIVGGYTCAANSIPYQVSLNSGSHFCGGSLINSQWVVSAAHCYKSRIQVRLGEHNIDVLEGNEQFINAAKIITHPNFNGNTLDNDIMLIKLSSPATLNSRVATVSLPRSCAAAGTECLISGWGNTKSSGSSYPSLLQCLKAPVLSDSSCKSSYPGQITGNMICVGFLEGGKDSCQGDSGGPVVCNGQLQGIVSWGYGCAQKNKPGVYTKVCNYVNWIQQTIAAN

[7] = HepG2 cell cytotoxicity, dose response, cytotoxicity control for Shn3 inhibitor project, CellTiter-Glo, cherry-picked (AID 624134); assay type: functional, cell-based
[8] = control 3'UTR Renilla luciferase suppression, dose response, counter-screen for Shn3 inhibitor project, cell-based, Clone20-Shn3RL, cherry-picked (AID 624133); assay type: functional
[9] = molecular target: T3, CAAX prenyl protease 2 (Homo sapiens, UniProt Q9Y256); experiment: human Rce1 protease inhibitors, dose response, biochemical, yeast membranes, quenched-peptide fluorescence, cherry-pick (AID 588849)
T3 sequence (Q9Y256 whole entry): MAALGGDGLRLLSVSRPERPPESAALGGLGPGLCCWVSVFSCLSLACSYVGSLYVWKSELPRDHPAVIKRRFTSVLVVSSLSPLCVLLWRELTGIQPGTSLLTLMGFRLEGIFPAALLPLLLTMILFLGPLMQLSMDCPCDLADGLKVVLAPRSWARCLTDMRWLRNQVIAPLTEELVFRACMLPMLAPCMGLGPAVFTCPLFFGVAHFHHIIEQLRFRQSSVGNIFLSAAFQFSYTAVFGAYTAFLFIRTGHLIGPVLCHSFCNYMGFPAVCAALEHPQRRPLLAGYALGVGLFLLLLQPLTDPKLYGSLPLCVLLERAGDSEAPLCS

[10] = molecular target: T4, Replicative DNA helicase DnaB (Mycobacterium tuberculosis, UniProt P9WMR3); experiment: DnaB intein splicing inhibitors, dose response, biochemical, cell-free fluorescence (AID 449749); assay type: functional
T4 sequence (P9WMR3 whole entry): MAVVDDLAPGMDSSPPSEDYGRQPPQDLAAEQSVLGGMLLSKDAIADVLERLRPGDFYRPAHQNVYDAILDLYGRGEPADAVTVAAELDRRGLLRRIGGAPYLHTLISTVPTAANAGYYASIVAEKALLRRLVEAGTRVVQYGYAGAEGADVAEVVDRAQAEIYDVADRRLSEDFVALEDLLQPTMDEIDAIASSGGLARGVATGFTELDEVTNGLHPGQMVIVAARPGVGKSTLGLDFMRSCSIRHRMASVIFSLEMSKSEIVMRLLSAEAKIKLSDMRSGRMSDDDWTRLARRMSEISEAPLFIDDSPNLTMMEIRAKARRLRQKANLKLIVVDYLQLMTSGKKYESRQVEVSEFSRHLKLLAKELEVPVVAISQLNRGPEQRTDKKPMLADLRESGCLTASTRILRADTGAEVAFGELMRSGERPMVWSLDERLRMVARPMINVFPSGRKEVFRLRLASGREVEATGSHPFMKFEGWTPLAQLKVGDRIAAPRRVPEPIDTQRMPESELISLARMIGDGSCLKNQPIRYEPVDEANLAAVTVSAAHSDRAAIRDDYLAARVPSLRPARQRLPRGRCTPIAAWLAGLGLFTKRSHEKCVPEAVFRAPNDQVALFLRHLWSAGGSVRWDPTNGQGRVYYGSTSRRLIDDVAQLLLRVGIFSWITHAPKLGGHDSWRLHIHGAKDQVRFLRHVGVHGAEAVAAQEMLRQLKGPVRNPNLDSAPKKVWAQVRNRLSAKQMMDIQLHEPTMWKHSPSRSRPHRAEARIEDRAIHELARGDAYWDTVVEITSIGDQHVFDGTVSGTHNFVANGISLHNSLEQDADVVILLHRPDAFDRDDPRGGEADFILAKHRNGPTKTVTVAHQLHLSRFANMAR

[11] = cells; assay type: functional, cell-based; remark: listed apart in the source
[12] = system: BJ; experiment: cytotoxicity toward Ras-transformed BJeLR fibroblasts, dose response, cell-based, alamar blue fluorescence, cherrypicked samples (AID 2631); assay type: functional; conditions: Homo sapiens;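 also: confirmatory dose-response assay in RAS-dependent BJ fibroblasts engineered with TERT, LT and ST, with cytotoxicity read by fluorescence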
[13] = molecular target: T5, Corticotropin-releasing factor receptor 2/Corticotropin-releasing factor-binding protein (Homo sapiens, UniProt P24387+Q13324); experiment: activators of CRF receptor 2 with binding protein – uHTS hits, confirmation (AID 602473); assay type: functional; conditions: read-out: EC50_Mean
T5 sequence (Q13324 whole entry): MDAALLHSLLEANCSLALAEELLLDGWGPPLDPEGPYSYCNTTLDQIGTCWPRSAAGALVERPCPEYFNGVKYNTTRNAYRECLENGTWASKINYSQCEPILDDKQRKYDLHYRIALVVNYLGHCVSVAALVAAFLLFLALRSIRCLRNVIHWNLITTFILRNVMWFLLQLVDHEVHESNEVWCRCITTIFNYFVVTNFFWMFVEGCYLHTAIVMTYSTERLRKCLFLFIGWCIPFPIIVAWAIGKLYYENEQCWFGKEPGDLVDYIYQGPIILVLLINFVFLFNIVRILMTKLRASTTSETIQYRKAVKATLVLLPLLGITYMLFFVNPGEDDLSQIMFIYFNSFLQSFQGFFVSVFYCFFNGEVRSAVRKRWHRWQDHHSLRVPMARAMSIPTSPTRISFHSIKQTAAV
T5 sequence (P24387 whole entry): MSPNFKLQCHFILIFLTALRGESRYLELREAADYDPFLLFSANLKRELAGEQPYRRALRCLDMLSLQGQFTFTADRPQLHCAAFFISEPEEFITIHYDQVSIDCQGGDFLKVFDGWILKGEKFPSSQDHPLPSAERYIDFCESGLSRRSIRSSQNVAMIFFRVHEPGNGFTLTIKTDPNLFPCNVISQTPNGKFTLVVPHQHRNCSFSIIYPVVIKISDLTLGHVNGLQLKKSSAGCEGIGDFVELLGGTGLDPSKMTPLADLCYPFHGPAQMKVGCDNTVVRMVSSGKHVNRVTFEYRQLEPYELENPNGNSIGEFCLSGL

[14] = molecular target: T6, Heat shock factor protein 1 (Mus musculus, UniProt P38532); experiment: HSF1 potentiators in luciferase reporter cells, confirmation, cell-based, NIH3T3, luminescence, dose retest (AID 435004); assay type: functional;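 also: stress induced by proteasome inhibitor MG132 added 30 min after compound; luciferase reporter driven by HSF1 response element in NIH3T3 cells; actives raise luminescence as potentiators of the MG132 stress response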
T6 sequence (P38532 whole entry): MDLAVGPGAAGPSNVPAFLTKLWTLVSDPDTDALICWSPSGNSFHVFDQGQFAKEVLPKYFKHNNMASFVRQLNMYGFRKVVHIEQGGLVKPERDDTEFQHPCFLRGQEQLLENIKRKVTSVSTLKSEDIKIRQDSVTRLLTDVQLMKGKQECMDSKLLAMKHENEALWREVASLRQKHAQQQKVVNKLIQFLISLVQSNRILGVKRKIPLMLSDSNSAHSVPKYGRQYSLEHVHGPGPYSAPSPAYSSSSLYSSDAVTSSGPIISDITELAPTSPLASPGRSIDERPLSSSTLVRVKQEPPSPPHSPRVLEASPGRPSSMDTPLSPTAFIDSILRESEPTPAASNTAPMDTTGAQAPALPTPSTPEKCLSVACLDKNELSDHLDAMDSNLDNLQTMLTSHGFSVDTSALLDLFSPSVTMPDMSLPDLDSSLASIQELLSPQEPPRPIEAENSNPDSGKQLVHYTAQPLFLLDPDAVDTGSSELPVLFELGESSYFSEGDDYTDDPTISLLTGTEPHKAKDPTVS

[15] = molecular target: Beta Lactamase (Pseudomonas aeruginosa, UniProt Q932Y6); experiment: beta-lactamase reporter inhibitor potency, dose response, artefact control for TLR9-MyD88 binding inhibitor project, BLA reporter cells, FRET fluorescence (AID 588341); assay type: cell-based;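 also: cell based assay in CHO-K1 cells stably expressing beta-lactamase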
Chain of Beta Lactamase (Q932Y6 whole entry, the tested form may be a part): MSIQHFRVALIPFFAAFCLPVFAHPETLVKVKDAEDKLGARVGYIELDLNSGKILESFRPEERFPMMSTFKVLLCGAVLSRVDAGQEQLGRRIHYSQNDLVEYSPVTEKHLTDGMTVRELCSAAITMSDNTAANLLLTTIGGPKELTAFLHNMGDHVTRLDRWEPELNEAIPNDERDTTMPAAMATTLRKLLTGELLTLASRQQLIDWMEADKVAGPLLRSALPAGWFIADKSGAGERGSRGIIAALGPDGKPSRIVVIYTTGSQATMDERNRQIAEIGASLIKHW

[16] = system: CHO; experiment: cytotoxicity in TLR9-MyD88 CHO cells, dose response, cytotoxicity control for TLR9-MyD88 binding inhibitor project, cell-based, luminescence (AID 588339); assay type: functional, hamster; conditions: Cricetulus griseus;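 also: CHO cells stably coexpressing TLR9 and MyD88 fusions from primary screen; compound exposure lasted 48 hours before viability readout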

Chain of Protein disulfide-isomerase (P07237 whole entry): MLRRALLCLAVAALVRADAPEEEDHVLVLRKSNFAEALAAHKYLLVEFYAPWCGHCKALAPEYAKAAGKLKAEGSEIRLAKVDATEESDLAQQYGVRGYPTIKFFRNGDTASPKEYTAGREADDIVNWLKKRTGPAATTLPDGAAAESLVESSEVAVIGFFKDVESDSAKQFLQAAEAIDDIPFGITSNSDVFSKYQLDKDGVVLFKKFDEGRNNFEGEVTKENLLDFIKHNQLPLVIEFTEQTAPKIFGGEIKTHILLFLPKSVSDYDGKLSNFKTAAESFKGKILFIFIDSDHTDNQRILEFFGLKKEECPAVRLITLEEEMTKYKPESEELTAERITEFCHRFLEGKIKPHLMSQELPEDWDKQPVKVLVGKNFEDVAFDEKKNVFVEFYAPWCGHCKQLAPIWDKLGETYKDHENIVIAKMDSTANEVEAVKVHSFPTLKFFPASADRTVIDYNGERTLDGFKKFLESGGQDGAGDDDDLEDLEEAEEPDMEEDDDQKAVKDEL

SMILES: CCN1CC2(COC(=O)c3ccccc3N)CCC(OC)C34C5CC6C(OC)CC(O)(C5C6OC)C(O)(C(OC)C23)C14 (centres undefined)
- AC50 [1]: 19.5 µM (active)

SMILES: COc1ccccc1-c1cc(C(F)(F)F)nc(S(=O)(=O)CCCC(=O)NCc2ccc(F)cc2)n1
- AC50 [2]: 4.43 µM (active)
- EC50 [3]: > 350 µM (not active)
- AC50 [4]: 7.9 µM (active)
- EC50 [5]: 3.61 µM (active)
- AC50 [6]: 2.3 µM (active)
- AC50 [7]: > 70 µM (inactive)
- AC50 [8]: 23.6 µM (active)
- AC50 [9]: 10.8 µM (active)
- AC50 [10]: 5.72 µM (active)
- EC50 [11]: > 350 µM (not active)

SMILES: CCC(C)C(=O)OCC1(c2ccc(C)cc2OC(=O)C(C)C)CO1 (centres undefined)
- EC50 [12]: 8.58 µM (active)

SMILES: Cc1c(-n2cc(C(=O)c3ccccc3O)cc(C#N)c2=O)c(=O)n(-c2ccccc2)n1C
- EC50 [13]: 8.01 µM (active)
- EC50 [14]: > 260 µM (inactive)
- AC50 [1]: 5.89 µM (active)

SMILES: O=C(NCc1ccccc1C(F)(F)F)c1cccc2c1C(=O)c1ccc(N3CCC(N4CCCCC4)CC3)cc1S2(=O)=O
- AC50 [2]: 21.2 µM (active)
- IC50 [15]: 5.89 µM (active)
- IC50 [16]: 8.71 µM (active)
- AC50 [7]: 9.77 µM (active)
